# Paper PMC5656517 (European journal of pharmaceutical sciences : official …, 2017)
# Read-outs that look alike come from different tables or passages of the source.
# How the values were obtained:
# [1] = biological target: CYP2C9 (Homo sapiens, UniProt P11712); test: Cocktail assay IC50 determination in human liver microsomes
# [2] = test system: CYP2C; conditions: ref He et al. (2015); cited from earlier work
# [3] = biological target: T1, CYP2B6 (Homo sapiens, UniProt P20813); test: Cocktail assay IC50 determination in human liver microsomes; conditions: substrate bupropion, mean ± standard deviation
# T1 sequence (P20813 1-491): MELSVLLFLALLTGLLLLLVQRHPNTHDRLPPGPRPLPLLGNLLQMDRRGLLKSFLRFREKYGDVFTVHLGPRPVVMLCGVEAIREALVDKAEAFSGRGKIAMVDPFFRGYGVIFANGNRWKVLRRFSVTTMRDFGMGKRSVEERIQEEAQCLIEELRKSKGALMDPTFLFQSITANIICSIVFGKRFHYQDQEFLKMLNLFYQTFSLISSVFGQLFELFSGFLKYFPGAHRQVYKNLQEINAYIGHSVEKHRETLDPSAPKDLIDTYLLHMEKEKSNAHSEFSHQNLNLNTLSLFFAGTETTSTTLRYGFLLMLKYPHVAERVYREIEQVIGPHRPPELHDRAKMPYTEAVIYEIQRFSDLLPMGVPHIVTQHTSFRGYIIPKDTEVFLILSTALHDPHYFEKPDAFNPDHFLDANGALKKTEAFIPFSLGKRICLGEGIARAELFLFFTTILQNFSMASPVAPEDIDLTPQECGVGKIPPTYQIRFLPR
# [4] = biological target: T2, CYP1A2 (Homo sapiens, UniProt P05177); test: Single concentration; conditions: human liver microsomes
# T2 sequence (P05177 1-516): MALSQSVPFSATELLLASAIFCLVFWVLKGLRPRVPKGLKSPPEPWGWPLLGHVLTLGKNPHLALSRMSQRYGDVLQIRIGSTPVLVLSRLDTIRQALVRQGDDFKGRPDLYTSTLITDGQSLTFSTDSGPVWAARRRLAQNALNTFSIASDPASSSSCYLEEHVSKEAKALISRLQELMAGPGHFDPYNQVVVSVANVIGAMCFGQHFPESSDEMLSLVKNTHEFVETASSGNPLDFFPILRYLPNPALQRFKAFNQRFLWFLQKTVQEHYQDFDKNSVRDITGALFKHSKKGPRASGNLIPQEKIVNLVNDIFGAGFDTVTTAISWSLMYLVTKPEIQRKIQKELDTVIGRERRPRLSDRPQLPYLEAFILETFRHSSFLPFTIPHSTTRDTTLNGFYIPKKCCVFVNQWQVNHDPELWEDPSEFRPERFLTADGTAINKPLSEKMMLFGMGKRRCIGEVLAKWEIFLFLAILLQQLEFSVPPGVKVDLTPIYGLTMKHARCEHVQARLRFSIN
# [5] = test system: cytochrome P450 enzymes; test: Single concentration; conditions: test concentration of 10 µM
# [6] = biological target: CYP2D6 (Homo sapiens, UniProt P10635); test: Cocktail assay IC50 determination in human liver microsomes; conditions: substrate dextromethorphan, mean ± standard deviation
# [7] = biological target: CYP3A4 (Homo sapiens, UniProt P08684); format: in vitro ADME; conditions: human liver microsomes, 100 µM
# [8] = test system: CYP3A4 (testosterone); conditions: ref He et al. (2015); cited from earlier work
# [9] = biological target: T3, CYP2C8 (Homo sapiens, UniProt P10632); test: Cocktail assay IC50 determination in human liver microsomes; conditions: substrate amodiaquine, mean ± standard deviation
# T3 sequence (P10632 1-490): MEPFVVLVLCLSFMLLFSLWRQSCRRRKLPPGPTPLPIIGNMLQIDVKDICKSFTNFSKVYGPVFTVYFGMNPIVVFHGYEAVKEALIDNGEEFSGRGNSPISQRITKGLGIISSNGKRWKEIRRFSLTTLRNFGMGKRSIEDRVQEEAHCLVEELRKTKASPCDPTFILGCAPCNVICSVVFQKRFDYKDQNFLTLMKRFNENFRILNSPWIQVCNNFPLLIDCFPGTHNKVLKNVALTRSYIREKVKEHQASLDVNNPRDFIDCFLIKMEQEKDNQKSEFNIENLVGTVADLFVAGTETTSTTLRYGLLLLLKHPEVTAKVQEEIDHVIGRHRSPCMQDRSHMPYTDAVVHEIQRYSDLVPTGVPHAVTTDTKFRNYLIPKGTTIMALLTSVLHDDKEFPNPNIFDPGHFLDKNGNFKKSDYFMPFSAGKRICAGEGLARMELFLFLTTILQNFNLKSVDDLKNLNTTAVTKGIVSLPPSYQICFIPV
# Chain of CYP3A4 (P08684 whole entry): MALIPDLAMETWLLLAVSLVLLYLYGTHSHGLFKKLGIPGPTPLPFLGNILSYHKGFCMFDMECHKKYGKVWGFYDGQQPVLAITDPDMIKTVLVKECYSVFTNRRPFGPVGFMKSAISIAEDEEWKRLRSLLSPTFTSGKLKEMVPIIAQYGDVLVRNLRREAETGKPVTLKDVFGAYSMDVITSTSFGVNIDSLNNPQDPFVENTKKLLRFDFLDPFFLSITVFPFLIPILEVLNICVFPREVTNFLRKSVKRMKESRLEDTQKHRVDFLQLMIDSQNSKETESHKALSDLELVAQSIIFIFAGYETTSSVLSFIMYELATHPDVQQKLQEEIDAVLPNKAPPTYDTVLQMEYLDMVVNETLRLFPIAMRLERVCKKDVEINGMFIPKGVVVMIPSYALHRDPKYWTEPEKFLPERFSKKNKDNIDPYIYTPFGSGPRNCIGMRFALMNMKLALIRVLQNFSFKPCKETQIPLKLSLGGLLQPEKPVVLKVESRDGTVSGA
# Chain of CYP2C9 (P11712 whole entry): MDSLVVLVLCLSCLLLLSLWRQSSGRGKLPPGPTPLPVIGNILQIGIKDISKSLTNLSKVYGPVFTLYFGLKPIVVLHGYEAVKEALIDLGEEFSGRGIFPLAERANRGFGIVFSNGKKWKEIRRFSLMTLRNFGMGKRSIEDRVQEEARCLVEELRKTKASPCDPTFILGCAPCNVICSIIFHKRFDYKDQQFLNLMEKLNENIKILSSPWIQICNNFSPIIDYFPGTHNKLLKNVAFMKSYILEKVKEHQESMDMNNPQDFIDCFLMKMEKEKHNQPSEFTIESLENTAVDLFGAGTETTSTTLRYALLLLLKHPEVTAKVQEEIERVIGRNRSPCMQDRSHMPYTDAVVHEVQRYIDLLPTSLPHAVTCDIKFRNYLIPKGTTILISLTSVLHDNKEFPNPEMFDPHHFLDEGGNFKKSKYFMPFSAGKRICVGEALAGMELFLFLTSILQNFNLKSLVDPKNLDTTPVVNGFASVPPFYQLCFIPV
# Chain of CYP2D6 (P10635 whole entry): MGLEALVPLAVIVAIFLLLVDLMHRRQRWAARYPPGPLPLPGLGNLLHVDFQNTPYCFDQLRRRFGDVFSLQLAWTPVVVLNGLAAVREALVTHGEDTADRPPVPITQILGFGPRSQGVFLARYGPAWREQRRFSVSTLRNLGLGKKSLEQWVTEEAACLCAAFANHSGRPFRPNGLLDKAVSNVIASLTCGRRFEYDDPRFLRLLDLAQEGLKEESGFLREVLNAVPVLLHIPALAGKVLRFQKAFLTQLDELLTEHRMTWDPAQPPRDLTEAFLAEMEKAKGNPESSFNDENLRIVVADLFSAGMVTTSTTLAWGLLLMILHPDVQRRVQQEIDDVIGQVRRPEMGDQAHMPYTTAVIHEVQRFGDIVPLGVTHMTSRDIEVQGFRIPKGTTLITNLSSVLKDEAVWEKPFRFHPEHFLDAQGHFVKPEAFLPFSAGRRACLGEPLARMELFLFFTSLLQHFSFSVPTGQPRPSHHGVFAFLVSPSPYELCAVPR
structure (smiles),measurement,setting,value
"C=CC(C)(C)c1cc(/C=C/C(=O)c2ccc(O)cc2)c(OC)cc1O [Licochalcone A, licochalcone A]","IC50, CYP2C9",[1]; lower end of the range of IC50 values,high nM levels
same,"IC50, CYP2C9","[1]; substrate tolbutamide, mean ± standard deviation",0.78 ± 0.09 µg/mL
same,"inhibition of CYP2C, in words",[2],strongly inhibited
same,"IC50, CYP2B6",[3],17.96 ± 4.58 µg/mL
same,"inhibition of CYP1A2 at 10 µM, in words",[4],weakly inhibited
same,inhibition of one or more cytochrome P450 enzymes,[5],more than 50%
same,"IC50, CYP2D6",[6],17.23 ± 1.68 µg/mL
same,% Control activity,"[7]; NADPH, 2 mM glutathione",38.5%
same,% Control activity,"[7]; NADPH, 1000 U/mL catalase",42.4%
same,% Control activity,"[7]; NADPH, 1000 U/mL superoxide dismutase",46.9%
same,% Control activity,"[7]; NADPH, mean of two experiments",49.5%
same,% Control activity,"[7]; without NADPH, mean of two experiments",100%
same,"inhibition of CYP3A4 (testosterone), in words",[8],strongly inhibited
same,"IC50, CYP2C8",[9],1.05 ± 0.08 µg/mL
